Data: the NIST ThermoML archive (doi:10.1021/acs.jced.8b00132)
Several values for one entry are separate records, joined by “and”; a condition that tells them apart may be missing. Equal entries are not always repeated. Numbers after ± are expanded uncertainties.

Conditions: transient hot wire

**Q.** Which results are given for `O=C(C(F)(F)C(F)(F)F)C(F)(C(F)(F)F)C(F)(F)F` [dodecafluoro-2-methylpentan-3-one]?
**A.** thermal conductivity (417.43 K, 35735 kPa, Liquid): 0.06006 ± 0.0012 W/m/K; thermal conductivity (417.44 K, 35746 kPa, Liquid): 0.06008 ± 0.0012 W/m/K; thermal conductivity (417.45 K, 995 kPa, Gas): 0.022 ± 0.0014 W/m/K; thermal conductivity (417.46 K, 24856 kPa, Liquid): 0.05553 ± 0.0011 W/m/K; thermal conductivity (417.46 K, 24868 kPa, Liquid): 0.05553 ± 0.0011 W/m/K; thermal conductivity (417.48 K, 3782 kPa, Liquid): 0.04235 ± 0.00089 W/m/K; thermal conductivity (417.49 K, 3785 kPa, Liquid): 0.04236 ± 0.00089 W/m/K; thermal conductivity (417.5 K, 788 kPa, Gas): 0.02105 ± 0.0013 W/m/K and 0.02104 ± 0.0013 W/m/K; thermal conductivity (417.52 K, 10593 kPa, Liquid): 0.04792 ± 0.001 W/m/K; thermal conductivity (417.52 K, 10594 kPa, Liquid): 0.04785 ± 0.001 W/m/K; thermal conductivity (417.53 K, 2204 kPa, Liquid): 0.04067 ± 0.00085 W/m/K; thermal conductivity (417.53 K, 2206 kPa, Liquid): 0.04059 ± 0.00085 W/m/K; thermal conductivity (417.56 K, 372 kPa, Gas): 0.02094 ± 0.0013 W/m/K; thermal conductivity (417.59 K, 16285 kPa, Liquid): 0.05128 ± 0.0011 W/m/K; thermal conductivity (417.59 K, 35671 kPa, Liquid): 0.06014 ± 0.0012 W/m/K; thermal conductivity (417.59 K, 35701 kPa, Liquid): 0.06019 ± 0.0012 W/m/K; thermal conductivity (417.6 K, 591 kPa, Gas): 0.02077 ± 0.0013 W/m/K; thermal conductivity (417.6 K, 1024 kPa, Gas): 0.0225 ± 0.00075 W/m/K; thermal conductivity (417.6 K, 16284 kPa, Liquid): 0.05126 ± 0.0011 W/m/K; thermal conductivity (417.61 K, 594 kPa, Gas): 0.02078 ± 0.0013 W/m/K; thermal conductivity (417.61 K, 6424 kPa, Liquid): 0.04484 ± 0.00094 W/m/K; thermal conductivity (417.62 K, 6421 kPa, Liquid): 0.0448 ± 0.00094 W/m/K; thermal conductivity (417.65 K, 994 kPa, Gas): 0.02218 ± 0.0014 W/m/K; thermal conductivity (417.66 K, 995 kPa, Gas): 0.02218 ± 0.0014 W/m/K; thermal conductivity (417.68 K, 785 kPa, Gas): 0.02107 ± 0.0013 W/m/K; thermal conductivity (417.7 K, 788 kPa, Gas): 0.02117 ± 0.0013 W/m/K; thermal conductivity (417.7 K, 3782 kPa, Liquid): 0.04218 ± 0.00088 W/m/K and 0.04238 ± 0.00089 W/m/K; thermal conductivity (417.71 K, 10585 kPa, Liquid): 0.04785 ± 0.001 W/m/K; thermal conductivity (417.73 K, 10592 kPa, Liquid): 0.04786 ± 0.001 W/m/K; thermal conductivity (417.76 K, 371 kPa, Gas): 0.02099 ± 0.0013 W/m/K; thermal conductivity (417.76 K, 372 kPa, Gas): 0.0209 ± 0.0013 W/m/K; thermal conductivity (417.82 K, 589 kPa, Gas): 0.02086 ± 0.0013 W/m/K; thermal conductivity (417.82 K, 6421 kPa, Liquid): 0.0448 ± 0.00094 W/m/K; thermal conductivity (417.84 K, 994 kPa, Gas): 0.02265 ± 0.0014 W/m/K; thermal conductivity (417.84 K, 6421 kPa, Liquid): 0.04481 ± 0.00094 W/m/K; thermal conductivity (417.85 K, 994 kPa, Gas): 0.02241 ± 0.0014 W/m/K; thermal conductivity (417.88 K, 785 kPa, Gas): 0.02124 ± 0.0013 W/m/K; thermal conductivity (417.93 K, 3782 kPa, Liquid): 0.04241 ± 0.00089 W/m/K; thermal conductivity (417.93 K, 3784 kPa, Liquid): 0.04244 ± 0.00089 W/m/K; thermal conductivity (417.95 K, 369 kPa, Gas): 0.02101 ± 0.0013 W/m/K; thermal conductivity (417.95 K, 370 kPa, Gas): 0.02093 ± 0.0013 W/m/K; thermal conductivity (418.05 K, 588 kPa, Gas): 0.02096 ± 0.0013 W/m/K; thermal conductivity (418.08 K, 784 kPa, Gas): 0.02089 ± 0.0013 W/m/K; thermal conductivity (418.16 K, 367 kPa, Gas): 0.02097 ± 0.0013 W/m/K; thermal conductivity (418.16 K, 369 kPa, Gas): 0.02096 ± 0.0013 W/m/K; thermal conductivity (418.29 K, 587 kPa, Gas): 0.02094 ± 0.0013 W/m/K; thermal conductivity (418.3 K, 587 kPa, Gas): 0.02092 ± 0.0013 W/m/K; thermal conductivity (418.46 K, 367 kPa, Gas): 0.02103 ± 0.0013 W/m/K; thermal conductivity (418.47 K, 366 kPa, Gas): 0.02102 ± 0.0013 W/m/K; thermal conductivity (432.13 K, 1545 kPa, Gas): 0.02726 ± 0.0017 W/m/K; thermal conductivity (432.18 K, 1546 kPa, Gas): 0.02748 ± 0.0017 W/m/K; thermal conductivity (432.2 K, 1545 kPa, Gas): 0.02732 ± 0.0017 W/m/K; thermal conductivity (432.24 K, 1546 kPa, Gas): 0.02788 ± 0.0018 W/m/K; thermal conductivity (432.25 K, 1546 kPa, Gas): 0.02765 ± 0.0018 W/m/K; thermal conductivity (432.26 K, 1546 kPa, Gas): 0.0279 ± 0.0018 W/m/K; thermal conductivity (432.38 K, 2634 kPa, Liquid): 0.03887 ± 0.00082 W/m/K; thermal conductivity (432.38 K, 2635 kPa, Liquid): 0.0388 ± 0.00082 W/m/K; thermal conductivity (432.42 K, 1424 kPa, Gas): 0.02465 ± 0.0015 W/m/K; thermal conductivity (432.43 K, 1423 kPa, Gas): 0.02466 ± 0.0015 W/m/K; thermal conductivity (432.46 K, 1706 kPa, Liquid): 0.03696 ± 0.00079 W/m/K; thermal conductivity (432.46 K, 1978 kPa, Liquid): 0.03766 ± 0.0008 W/m/K; thermal conductivity (432.47 K, 1706 kPa, Liquid): 0.03707 ± 0.00079 W/m/K; thermal conductivity (432.47 K, 1710 kPa, Liquid): 0.03705 ± 0.00079 W/m/K; thermal conductivity (432.47 K, 1979 kPa, Liquid): 0.03775 ± 0.0008 W/m/K; thermal conductivity (432.52 K, 1423 kPa, Gas): 0.0248 ± 0.0015 W/m/K; thermal conductivity (432.52 K, 2633 kPa, Liquid): 0.03885 ± 0.00082 W/m/K; thermal conductivity (432.53 K, 1423 kPa, Gas): 0.02469 ± 0.0015 W/m/K; thermal conductivity (432.53 K, 2633 kPa, Liquid): 0.03887 ± 0.00082 W/m/K; thermal conductivity (432.54 K, 1420 kPa, Gas): 0.02444 ± 0.0015 W/m/K; thermal conductivity (432.55 K, 1420 kPa, Gas): 0.0244 ± 0.0015 W/m/K; thermal conductivity (432.56 K, 1978 kPa, Liquid): 0.03769 ± 0.00079 W/m/K; thermal conductivity (432.57 K, 1705 kPa, Liquid): 0.03737 ± 0.00079 W/m/K and 0.03712 ± 0.00079 W/m/K; thermal conductivity (432.57 K, 1979 kPa, Liquid): 0.0379 ± 0.0008 W/m/K; thermal conductivity (432.62 K, 1709 kPa, Liquid): 0.03738 ± 0.00079 W/m/K; thermal conductivity (432.63 K, 1422 kPa, Gas): 0.02518 ± 0.0016 W/m/K; thermal conductivity (432.63 K, 1709 kPa, Liquid): 0.0377 ± 0.0008 W/m/K; thermal conductivity (432.65 K, 1419 kPa, Gas): 0.02476 ± 0.0015 W/m/K and 0.02477 ± 0.0015 W/m/K; thermal conductivity (432.67 K, 1705 kPa, Liquid): 0.03805 ± 0.00081 W/m/K; thermal conductivity (432.68 K, 1705 kPa, Liquid): 0.0373 ± 0.00079 W/m/K; thermal conductivity (432.68 K, 1977 kPa, Liquid): 0.03782 ± 0.0008 W/m/K; thermal conductivity (432.68 K, 1978 kPa, Liquid): 0.03794 ± 0.0008 W/m/K; thermal conductivity (432.68 K, 2631 kPa, Liquid): 0.03893 ± 0.00082 W/m/K; thermal conductivity (432.68 K, 2632 kPa, Liquid): 0.03891 ± 0.00082 W/m/K; thermal conductivity (432.69 K, 3940 kPa, Liquid): 0.04069 ± 0.00085 W/m/K and 0.04067 ± 0.00085 W/m/K
